Results on 99 sequences are retold here after the OligoGym collection.

“And” between values parts separate entries of the source, which are not always exact repeats. Equal entries are not always repeated. After the bases stand the sugars from the 5' end (letter, count) and the backbone: PS all phosphorothioate, else s phosphorothioate and o phosphodiester by linkage. Methylation of C is not given here. k = constrained ethyl (cEt); d = 2'-deoxy (DNA)

This series has as its target MALAT1. The conditions noted are these: ASO, A431, 0.005 µM.
As to AAATCGGAGCAGCACG (sugars k3 d10 k3, PS), the target mRNA inhibition stood at 16%.
Regarding AACAATTACCTAAACC (sugars k3 d10 k3, PS), the target mRNA inhibition came to 16%.
GATTATCCTGATATTG (sugars k3 d10 k3, PS): the target mRNA inhibition was determined as 4%.
For the sequence CGCTGCGCTTAAGAGG (sugars k3 d10 k3, PS), the target mRNA inhibition worked out at 10%.
Then GTTAACAGCTGCCTGC (sugars k3 d10 k3, PS), with 7%.
With CATAAACAATGCACTA (sugars k3 d10 k3, PS), the target mRNA inhibition was found to be 14%.
Regarding CTCTAACCCAGTTTGT (sugars k3 d10 k3, PS), the target mRNA inhibition is 36%.
For the sequence GACAGATTAGTAGTCA (sugars k3 d10 k3, PS), the target mRNA inhibition was -12%.
In the case of GATTCCGTAACTTTAA (sugars k3 d10 k3, PS), the target mRNA inhibition was 69% and 90%.
Turning to CCTGAAATCCCCTAGG (sugars k3 d10 k3, PS), the target mRNA inhibition is -4%.
As for CTCCGAAGACACAGAG (sugars k3 d10 k3, PS), the figure is -3%; as for CAACCTCCGTCATGTT (sugars k3 d10 k3, PS), 35%; as for CTCCTGAGATGACTGA (sugars k3 d10 k3, PS), 39%.
Take TTACACCTTGAGTCAT (sugars k3 d10 k3, PS): the target mRNA inhibition was 21%.
As for GTTCAAAGATATTGTG (sugars k3 d10 k3, PS), the target mRNA inhibition was 0%.
As for CGATTATGGATCATGC (sugars k3 d10 k3, PS), the target mRNA inhibition was 44% and 57%.
For the sequence GGCCAGACCAACCCCC (sugars k3 d10 k3, PS), the target mRNA inhibition was 3%.
Consider GGCTCGATGGAAAAAT (sugars k3 d10 k3, PS), for which the target mRNA inhibition amounted to 33%.
As for ATCTCCCACCTGTCTA (sugars k3 d10 k3, PS), the target mRNA inhibition stood at 45%.
Turning to TCAGGGTTATGCTTAT (sugars k3 d10 k3, PS), the target mRNA inhibition was 64% and 59%.
As for TTGAGATGGACATTGC (sugars k3 d10 k3, PS), the figure is 87% and 72%; as for GCAGGCTATTACCTGA (sugars k3 d10 k3, PS), 19%; as for CTTACTGGGTCTGGCT (sugars k3 d10 k3, PS), 41%.
As for AGCTTCAATCACAAAT (sugars k3 d10 k3, PS), the target mRNA inhibition is 23%.
As to TTGAAGCATACCTTAA (sugars k3 d10 k3, PS), the target mRNA inhibition was found to be 28%.
As for TCACCAAATCGCACTG (sugars k3 d10 k3, PS), the target mRNA inhibition is 20%.
Then TTATAGCTTGACAAGC (sugars k3 d10 k3, PS), with 37%; and CTGAGAAAACAATACG (sugars k3 d10 k3, PS), with 8%; and CAGCTTCCGCTAAGAT (sugars k3 d10 k3, PS), with -11%.
Regarding GCAGGCAAATTAATGG (sugars k3 d10 k3, PS), the target mRNA inhibition was found to be 45%.
Take ACCCCCGGAACTTTTA (sugars k3 d10 k3, PS): the target mRNA inhibition is 9%.
As for TAGTAGCTTTTTGATG (sugars k3 d10 k3, PS), the figure is 31%; as for CACTGGATAAGTATTA (sugars k3 d10 k3, PS), 40%; as for GACCAACCCCCAGTTC (sugars k3 d10 k3, PS), 3%.
For GTGAAAACCCACTCTT (sugars k3 d10 k3, PS), the target mRNA inhibition turned out to be 10%.
As for TTTACTTTCCATTACG (sugars k3 d10 k3, PS), the figure is 16%; as for GCCGACCTCACGGATT (sugars k3 d10 k3, PS), 45%; as for ATTACTTCCGTTACGA (sugars k3 d10 k3, PS), 43%.
Turning to CCAGTCTACAAGTTAC (sugars k3 d10 k3, PS), the target mRNA inhibition is 50% and 56%.
With GAGTAACTACCAGCCA (sugars k3 d10 k3, PS), the target mRNA inhibition was 37%.
As to TCACAAGGCAAATCGC (sugars k3 d10 k3, PS), the target mRNA inhibition was determined as 7%.
With ACGGAAATTTTTCTAC (sugars k3 d10 k3, PS), the target mRNA inhibition was found to be 4%.
As to GAAATCTATTCAATAC (sugars k3 d10 k3, PS), the target mRNA inhibition was 24%.
As for GATGGACATTGCCTCT (sugars k3 d10 k3, PS), the figure is 37%; as for GGAAAAGTGGTTGCCC (sugars k3 d10 k3, PS), 24%.
In the case of TTGATCCCAACTCATC (sugars k3 d10 k3, PS), the target mRNA inhibition was found to be 33%.
Consider ATCACTTTAGAGGCTT (sugars k3 d10 k3, PS), for which the target mRNA inhibition worked out at 53%.
As to TCCCTGAAGGTGTTCG (sugars k3 d10 k3, PS), the target mRNA inhibition amounted to 18%.
As for TACTTTAAGCCTTCGG (sugars k3 d10 k3, PS), the figure is 29%.
Then TGCCTTAAAGTTACAT (sugars k3 d10 k3, PS), with 19%; and CGTGTTGTTTTCTCAG (sugars k3 d10 k3, PS), with 23%.
Regarding CACCAAATCGCACTGG (sugars k3 d10 k3, PS), the target mRNA inhibition was -7%.
GCACAGCGGTACACTC (sugars k3 d10 k3, PS): the target mRNA inhibition was determined as 9%.
As for TTACCTTGAAACCGAT (sugars k3 d10 k3, PS), the figure is 31%; as for CTACTATTTCTCCAGG (sugars k3 d10 k3, PS), 41%.
As for TCCACTTGATCCCAAC (sugars k3 d10 k3, PS), the target mRNA inhibition is 47% and 56%.
As to CAATTACCTAAACCCA (sugars k3 d10 k3, PS), the target mRNA inhibition amounted to 20%.
In the case of CCCACAAACTTGCCAT (sugars k3 d10 k3, PS), the target mRNA inhibition came to 1%.
AGGGACGGTTGAGAAG (sugars k3 d10 k3, PS): the target mRNA inhibition came to 14%.
Regarding CGGTTGAGAAGTGGCA (sugars k3 d10 k3, PS), the target mRNA inhibition is -11%.
Consider ATGCTTATTCCCCAAT (sugars k3 d10 k3, PS), for which the target mRNA inhibition turned out to be 52%.
CATGACCCTACTGAAG (sugars k3 d10 k3, PS): the target mRNA inhibition amounted to 2%.
As for TGCCAACTAATTGCCA (sugars k3 d10 k3, PS), the target mRNA inhibition was 23%.
Take AAGTAGACCAACTAAG (sugars k3 d10 k3, PS): the target mRNA inhibition was -22%.
Then ACTGGATAAGTATTAT (sugars k3 d10 k3, PS), with 46%.
Then CTGTTAACAGCTGCCT (sugars k3 d10 k3, PS), with 52%; and AGCCAAGCACTCATAT (sugars k3 d10 k3, PS), with 17%.
In the case of CAACTCTTCTGATAAC (sugars k3 d10 k3, PS), the target mRNA inhibition was found to be 16%.
Take ATACTTCATTACCCCA (sugars k3 d10 k3, PS): the target mRNA inhibition amounted to 50%.
As for GAGCCAAGCACTCATA (sugars k3 d10 k3, PS), the figure is 6%.
In the case of ACAAATACGACTGCTT (sugars k3 d10 k3, PS), the target mRNA inhibition amounted to 16%.
Turning to AGGCTATTACCTGAAA (sugars k3 d10 k3, PS), the target mRNA inhibition was -5%.
As to GCTCCCCGCCTGAGCC (sugars k3 d10 k3, PS), the target mRNA inhibition turned out to be 8%.
Consider GCTTATTCCCCAATGG (sugars k3 d10 k3, PS), for which the target mRNA inhibition is 73% and 48% and 50%.
As for AGCCAGTCAGGGACAC (sugars k3 d10 k3, PS), the target mRNA inhibition was -3%.
On to TTTAAAAAGGCTCGAT (sugars k3 d10 k3, PS), for which the target mRNA inhibition was 28%.
AGCTACTGGCTGCATC (sugars k3 d10 k3, PS): the target mRNA inhibition worked out at 20%.
Consider ACTCTAATCACTGTCA (sugars k3 d10 k3, PS), for which the target mRNA inhibition worked out at 35%.
Consider AAGGCTCCATGGTTGT (sugars k3 d10 k3, PS), for which the target mRNA inhibition was 32%.
Then GAAAGTCCTTCACATT (sugars k3 d10 k3, PS), with 22%; and CAGTTCAATACTTTCC (sugars k3 d10 k3, PS), with 45%.
CAGTCTACAAGTTACA (sugars k3 d10 k3, PS): the target mRNA inhibition was found to be 27%.
Then TGTAAGAATTAAGACC (sugars k3 d10 k3, PS), with 18%.
Turning to AACAGGTCATCTATTC (sugars k3 d10 k3, PS), the target mRNA inhibition is 33%.
TAGACGGAGAACAACT (sugars k3 d10 k3, PS): the target mRNA inhibition worked out at 29%.
On to CTCCCCGCCTGAGCCC (sugars k3 d10 k3, PS), for which the target mRNA inhibition is -23%.
Regarding ACTTGGAAGTTGATAT (sugars k3 d10 k3, PS), the target mRNA inhibition is 4%.
On to CTTCTGGAAAAGCTAG (sugars k3 d10 k3, PS), for which the target mRNA inhibition is 8%.
In the case of GACATTCAAGCTGAAC (sugars k3 d10 k3, PS), the target mRNA inhibition is 53%.
For CTTCCCTATATAAGGT (sugars k3 d10 k3, PS), the target mRNA inhibition was determined as 10%.
Regarding AGGAAGGCTCCATGGT (sugars k3 d10 k3, PS), the target mRNA inhibition was 11%.
Take ACTCAGAAGATGTTAT (sugars k3 d10 k3, PS): the target mRNA inhibition turned out to be 30%.
Then GCCGCCTTTGTGAGGG (sugars k3 d10 k3, PS), with 25%; and AGGATGTATATAGTTC (sugars k3 d10 k3, PS), with 2%.
TAAGTTTTCAGCAGTA (sugars k3 d10 k3, PS): the target mRNA inhibition is -14%.
For AAAACTTATCTGCGGT (sugars k3 d10 k3, PS), the target mRNA inhibition was 54% and 41%.
Then TAGTTGGCATCAAGGC (sugars k3 d10 k3, PS), with 72% and 69%; and CTGCTACCTTCATCAC (sugars k3 d10 k3, PS), with 39%; and AAGCACTTATCCCTAA (sugars k3 d10 k3, PS), with 25%.
